In patent publication US20260274829A1, “NEW E3 UBIQUITIN LIGASE LIGAND, PROTEIN DEGRADATION AGENT AND USE THEREOF” (GLUETACS THERAPEUTICS (SHANGHAI) CO., LTD., priority 2023, published 2026) one finds IC50 data, which are given here for 23 compounds.

pIC50: −log10 of the molar value. A value given as a limit tells only on which side of the number the result lay.

T1 sequence (Q96SW2 whole entry): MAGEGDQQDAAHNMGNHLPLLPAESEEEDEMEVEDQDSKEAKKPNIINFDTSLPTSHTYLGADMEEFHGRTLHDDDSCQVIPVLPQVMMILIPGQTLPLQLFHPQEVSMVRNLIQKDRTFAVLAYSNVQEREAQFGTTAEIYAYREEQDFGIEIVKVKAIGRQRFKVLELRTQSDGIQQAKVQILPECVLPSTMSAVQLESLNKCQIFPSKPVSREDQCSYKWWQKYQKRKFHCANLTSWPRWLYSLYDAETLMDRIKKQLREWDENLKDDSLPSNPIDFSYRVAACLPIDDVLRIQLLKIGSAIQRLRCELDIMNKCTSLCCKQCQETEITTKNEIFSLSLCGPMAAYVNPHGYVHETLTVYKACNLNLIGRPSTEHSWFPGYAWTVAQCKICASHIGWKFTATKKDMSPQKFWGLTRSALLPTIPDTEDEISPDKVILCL

This experiment addresses T1, human Cereblon WT GST-tagged protein (Homo sapiens, UniProt Q96SW2).
T1 construct: purchased CISBIO 64BDCRBNPEH
Nature of the experiment: CRBN binding, HTRF CEREBLON BINDING kit. Conditions: CRBN binding, HTRF CEREBLON BINDING kit. The method, boiled down: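 Binding inhibition was calculated from the 665/620 nm emission ratios, with blank wells and solvent wells as references. Test compounds competed for GST-tagged human Cereblon WT against a Thalidomide-Re reagent paired with GST Eu antibody. Plates were sealed and held at room temperature for 3 hours before the HTRF read.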
(In TR-FRET formats the signal depends on donor and acceptor labels being close together.)
One may read the pIC50 as −log10 of the IC50, conventionally taken in molar units. Lower therefore signals a high IC50. `CN(Cc1cccc(N2CCC(=O)NC2=O)c1)C1CCN(c2ccc(-c3cc(F)c4c(c3)C(=O)N(C(C(=O)Nc3nccs3)c3ncn5c3CCC5)C4)cc2)CC1` (centres unmarked) [GT-05281, 2-(6,7-dihydro-5H-pyrrolo[1,2-c]imidazol-1-yl)-2-(6-(4-(4-((3-(2,4-dioxotetrahydropyrimidin-1(2H)-yl)benzyl)(methyl)amino)piperidin-1-yl)phenyl)-4-fluoro-1-oxoisoindolin-2-yl)-N-(thiazol-2-yl)acetamide] gave a pIC50 of more than 6.30.

Consider `CN(Cc1ccc(N2CCC(=O)NC2=O)cn1)C1CCN(c2ccc(-c3cc(F)c4c(c3)C(=O)N(C(C(=O)Nc3nccs3)c3ncn5c3CCC5)C4)cc2)CC1` (centres unmarked) [GT-05282, 2-(6,7-dihydro-5H-pyrrolo[1,2-c]imidazol-1-yl)-2-(6-(4-(4-(((5-(2,4-dioxotetrahydropyrimidin-1(2H)-yl)pyridin-2-yl)methyl)(methyl)amino)piperidin-1-yl)phenyl)-4-fluoro-1-oxoisoindolin-2-yl)-N-(thiazol-2-yl)acetamide], for which the pIC50 was 6.00 to 6.30. In the case of `CN(Cc1ccc(N2CCC(=O)NC2=O)nc1)C1CCN(c2ccc(-c3cc(F)c4c(c3)C(=O)N(C(C(=O)Nc3nccs3)c3ncn5c3CCC5)C4)cc2)CC1` (centres unmarked) [GT-05283, 2-(6,7-dihydro-5H-pyrrolo[1,2-c]imidazol-1-yl)-2-(6-(4-(4-(((6-(2,4-dioxotetrahydropyrimidin-1(2H)-yl)pyridin-3-yl)methyl)(methyl)amino)piperidin-1-yl)phenyl)-4-fluoro-1-oxoisoindolin-2-yl)-N-(thiazol-2-yl)acetamide], the pIC50 is 5.72 to 6.00. `CN(Cc1cccc(NC2CCC(=O)NC2=O)c1)C1CCN(c2ccc(-c3cc(F)c4c(c3)C(=O)N(C(C(=O)Nc3nccs3)c3ncn5c3CCC5)C4)cc2)CC1` (centres unmarked) [GT-05284, 2-(6,7-dihydro-5H-pyrrolo[1,2-c]imidazol-1-yl)-2-(6-(4-(4-((3-((2,6-dioxopiperidin-3-yl)amino)benzyl)(methyl)amino)piperidin-1-yl)phenyl)-4-fluoro-1-oxoisoindolin-2-yl)-N-(thiazol-2-yl)acetamide]: the pIC50 was more than 6.30. Compound `CC(C)(O)c1cc2nn(C3CCN(Cc4ccc(C5CCC(=O)NC5=O)cc4)CC3)cc2cc1NC(=O)c1cccc(C(F)(F)F)n1` (centres unmarked) [GT-05753, N-(2-(1-(4-(2,6-dioxopiperidin-3-yl)benzyl)piperidin-4-yl)-6-(2-hydroxypropan-2-yl)-2H-indazol-5-yl)-6-(trifluoromethyl)picolinamide] showed a pIC50 of 6.00 to 6.30. In turn, `CC(C)(O)c1cc2nn(C3CCN(Cc4ccc(N5CCC(=O)NC5=O)cc4)CC3)cc2cc1NC(=O)c1cccc(C(F)(F)F)n1` [GT-05754, N-(2-(1-(4-(2,4-dioxotetrahydropyrimidin-1(2H)-yl)benzyl)piperidin-4-yl)-6-(2-hydroxypropan-2-yl)-2H-indazol-5-yl)-6-(trifluoromethyl)picolinamide] had a pIC50 of 6.00 to 6.30. Under `CC(C)(O)c1cc2nn(C3CCN(Cc4cccc(N5CCC(=O)NC5=O)c4)CC3)cc2cc1NC(=O)c1cccc(C(F)(F)F)n1` [GT-05755, N-(2-(1-(3-(2,4-dioxotetrahydropyrimidin-1(2H)-yl)benzyl)piperidin-4-yl)-6-(2-hydroxypropan-2-yl)-2H-indazol-5-yl)-6-(trifluoromethyl)picolinamide] stands 6.00 to 6.30; under `CC(C)(O)c1cc2nn(C3CCN(Cc4ccc(N5CCC(=O)NC5=O)cn4)CC3)cc2cc1NC(=O)c1cccc(C(F)(F)F)n1` [GT-05756, N-(2-(1-((5-(2,4-dioxotetrahydropyrimidin-1(2H)-yl)pyridin-2-yl)methyl)piperidin-4-yl)-6-(2-hydroxypropan-2-yl)-2H-indazol-5-yl)-6-(trifluoromethyl)picolinamide], 6.00 to 6.30; under `CC(C)(O)c1cc2nc(C3CCN(Cc4cccc(N5CCC(=O)NC5=O)c4)CC3)sc2cc1NC(=O)c1cccc(C(F)(F)F)n1` [GT-05765, N-(2-(1-(3-(2,4-dioxotetrahydropyrimidin-1(2H)-yl)benzyl)piperidin-4-yl)-5-(2-hydroxypropan-2-yl)benzo[d]thiazol-6-yl)-6-(trifluoromethyl)picolinamide], 6.00 to 6.30.

In turn, `CC(C)(O)c1cc2nc(C3CCN(Cc4ccc(N5CCC(=O)NC5=O)cc4)CC3)oc2cc1NC(=O)c1cccc(C(F)(F)F)n1` [GT-05772, N-(2-(1-(4-(2,4-dioxotetrahydropyrimidin-1(2H)-yl)benzyl)piperidin-4-yl)-5-(2-hydroxypropan-2-yl)benzo[d]oxazol-6-yl)-6-(trifluoromethyl)picolinamide] had a pIC50 of 5.72 to 6.00. Under `CC(C)(O)c1cc2nc(C3CCN(Cc4cccc(N5CCC(=O)NC5=O)c4)CC3)oc2cc1NC(=O)c1cccc(C(F)(F)F)n1` [GT-05773, N-(2-(1-(3-(2,4-dioxotetrahydropyrimidin-1(2H)-yl)benzyl)piperidin-4-yl)-5-(2-hydroxypropan-2-yl)benzo[d]oxazol-6-yl)-6-(trifluoromethyl)picolinamide] stands 6.00 to 6.30.

In turn, `CC(C)(O)c1cc2nc(C3CCN(Cc4ccc(N5CCC(=O)NC5=O)cn4)CC3)oc2cc1NC(=O)c1cccc(C(F)(F)F)n1` [GT-05774, N-(2-(1-((5-(2,4-dioxotetrahydropyrimidin-1(2H)-yl)pyridin-2-yl)methyl)piperidin-4-yl)-5-(2-hydroxypropan-2-yl)benzo[d]oxazol-6-yl)-6-(trifluoromethyl)picolinamide] showed a pIC50 of 5.72 to 6.00. `O=C1CCN(c2ccc(CN3CCC(n4cc(NC(=O)c5cnn6ccc(N7CCOCC7)nc56)c(C(F)F)n4)CC3)cc2)C(=O)N1` [GT-05798, N-(3-(difluoromethyl)-1-(1-(4-(2,4-dioxotetrahydropyrimidin-1(2H)-yl)benzyl)piperidin-4-yl)-1H-pyrazol-4-yl)-5-morpholinopyrazolo[1,5-a]pyrimidine-3-carboxamide] showed a pIC50 of more than 6.30. As to `O=C1CCN(c2ccc(CN3CCC(n4cc(NC(=O)c5cnn6ccc(N7CCOCC7)nc56)c(C(F)F)n4)CC3)nc2)C(=O)N1` [GT-05799, N-(3-(difluoromethyl)-1-(1-((5-(2,4-dioxotetrahydropyrimidin-1(2H)-yl)pyridin-2-yl)methyl)piperidin-4-yl)-1H-pyrazol-4-yl)-5-morpholinopyrazolo[1,5-a]pyrimidine-3-carboxamide], the pIC50 is more than 6.30. For the compound `O=C1CCC(Nc2cccc(CN3CCC(n4cc(NC(=O)c5cnn6ccc(N7CCOCC7)nc56)c(C(F)F)n4)CC3)c2)C(=O)N1` (centres unmarked) [GT-05801, N-(3-(difluoromethyl)-1-(1-(3-((2,6-dioxopiperidin-3-yl)amino)benzyl)piperidin-4-yl)-1H-pyrazol-4-yl)-5-morpholinopyrazolo[1,5-a]pyrimidine-3-carboxamide], the pIC50 was 6.00 to 6.30.

Compound `Cc1cc(-c2nc(C(=O)Nc3cc4oc(N5CCN(Cc6ccc(N7CCC(=O)NC7=O)cc6)CC5)nc4nc3N3CC[C@@H](O)C3)co2)ccn1` [GT-05807, (R)—N-(2-(4-(4-(2,4-dioxotetrahydropyrimidin-1(2H)-yl)benzyl)piperazin-1-yl)-5-(3-hydroxypyrrolidin-1-yl)oxazolo[4,5-b]pyridin-6-yl)-2-(2-methylpyridin-4-yl)oxazole-4-carboxamide] showed a pIC50 of 6.00 to 6.30.

Take `Cc1cc(-c2nc(C(=O)Nc3cc4oc(N5CCN(Cc6cccc(N7CCC(=O)NC7=O)c6)CC5)nc4nc3N3CC[C@@H](O)C3)co2)ccn1` [GT-05808, (R)—N-(2-(4-(3-(2,4-dioxotetrahydropyrimidin-1(2H)-yl)benzyl)piperazin-1-yl)-5-(3-hydroxypyrrolidin-1-yl)oxazolo[4,5-b]pyridin-6-yl)-2-(2-methylpyridin-4-yl)oxazole-4-carboxamide]: the pIC50 is 6.00 to 6.30. For the compound `O=C1CCN(c2cccc(CN3CCN(c4ccc(Nc5ncc6nc(Nc7ccccc7)n(C7CCCC7)c6n5)cc4)CC3)c2)C(=O)N1` [GT-05838, 1-(3-((4-(4-((9-cyclopentyl-8-(phenylamino)-9H-purin-2-yl)amino)phenyl)piperazin-1-yl)methyl)phenyl)dihydropyrimidine-2,4(1H,3H)-dione], the pIC50 was 6.00 to 6.30. On to `O=C1CCN(c2ccc(CN3CCN(c4ccc(Nc5ncc6nc(Nc7ccccc7)n(C7CCCC7)c6n5)cc4)CC3)nc2)C(=O)N1` [GT-05839, 1-(6-((4-(4-((9-cyclopentyl-8-(phenylamino)-9H-purin-2-yl)amino)phenyl)piperazin-1-yl)methyl)pyridin-3-yl)dihydropyrimidine-2,4(1H,3H)-dione], for which the pIC50 was 6.00 to 6.30. The compound `O=C1CCC(Nc2cccc(CN3CCN(c4ccc(Nc5ncc6nc(Nc7ccccc7)n(C7CCCC7)c6n5)cc4)CC3)c2)C(=O)N1` (centres unmarked) [GT-05841, 3-((3-((4-(4-((9-cyclopentyl-8-(phenylamino)-9H-purin-2-yl)amino)phenyl)piperazin-1-yl)methyl)phenyl)amino)piperidine-2,6-dione] showed a pIC50 of more than 6.30. In turn, `CN(Cc1cccc(N2CCC(=O)NC2=O)c1)C1CCN(c2ccc(Nc3ncc4nc(Nc5ccccc5)n(C5CCCC5)c4n3)cc2)CC1` [GT-05870, 1-(3-(((1-(4-((9-cyclopentyl-8-(phenylamino)-9H-purin-2-yl)amino)phenyl)piperidin-4-yl)(methyl)amino)methyl)phenyl)dihydropyrimidine-2,4(1H,3H)-dione] showed a pIC50 of 6.00 to 6.30. Under `O=C1CCC(c2ccc(CN3CCN(C4CCN(c5ccc(Nc6ncc7nc(Nc8ccccc8)n(C8CCCC8)c7n6)cc5)CC4)CC3)cc2)C(=O)N1` (centres unmarked) [GT-05915, 3-(4-((4-(1-(4-((9-cyclopentyl-8-(phenylamino)-9H-purin-2-yl)amino)phenyl)piperidin-4-yl)piperazin-1-yl)methyl)phenyl)piperidine-2,6-dione] stands more than 6.30.

Turning to `O=C1CCN(c2ccc(CN3CCN(C4CCN(c5ccc(Nc6ncc7nc(Nc8ccccc8)n(C8CCCC8)c7n6)cc5)CC4)CC3)cc2)C(=O)N1` [GT-05917, 1-(4-((4-(1-(4-((9-cyclopentyl-8-(phenylamino)-9H-purin-2-yl)amino)phenyl)piperidin-4-yl)piperazin-1-yl)methyl)phenyl)dihydropyrimidine-2,4(1H,3H)-dione], the pIC50 was 6.00 to 6.30.
